Assay results as given in US4246342A, “Process for the manufacture of pyruvate oxidase, and analytical method and kit for the use of the same” (Toyo Jozo Kabushiki Kaisha, priority 1978, dated 1981).

Tests used:
[1] = tested on: pyruvate oxidase (B-0668); assay: Effect of several substances added on the enzyme activity; assay type: biochemical, Streptococcus sp. B-0668; details: 5 mM of the substance added instead of MgCl2 in the assay system; enzyme from B-0668; MgCl2 = 100
Method: (§1) (a) Effect of several substances on the enzyme activity is examined by adding 5 mM of the substance indicated below instead of MgCl2 in the assay system.
(§2) The assay method of pyruvate oxidase of the present invention uses a reaction mixture as follows: […]
(§3) The above reaction mixture (1.0 ml) is pre-incubated at 37° C. for 3 minutes. To this solution is added the enzyme solution (20 μl) and incubated at 37° C. for 10 minutes. 0.1 M citrate buffer (pH 6.0, 2 ml) containing 0.1 M EDTA is added to stop the reaction. The violet color formed is measured by colorimetric method at 565 nm.
(§4) A unit (1 unit, 1 U) of enzyme activity is defined as the activity which generates 1 μmole of hydrogen peroxide per minute.

[2] = molecular target: T1, pyruvate oxidase (IFO-12219) (Aerococcus viridans, UniProt A0ABP2I6X2); assay: as above; assay type: biochemical, Aerococcus viridans IFO-12219; details: 5 mM of the substance added instead of MgCl2 in the assay system; enzyme from IFO-12219; MgCl2 = 100
T1 sequence (A0ABP2I6X2 1-592): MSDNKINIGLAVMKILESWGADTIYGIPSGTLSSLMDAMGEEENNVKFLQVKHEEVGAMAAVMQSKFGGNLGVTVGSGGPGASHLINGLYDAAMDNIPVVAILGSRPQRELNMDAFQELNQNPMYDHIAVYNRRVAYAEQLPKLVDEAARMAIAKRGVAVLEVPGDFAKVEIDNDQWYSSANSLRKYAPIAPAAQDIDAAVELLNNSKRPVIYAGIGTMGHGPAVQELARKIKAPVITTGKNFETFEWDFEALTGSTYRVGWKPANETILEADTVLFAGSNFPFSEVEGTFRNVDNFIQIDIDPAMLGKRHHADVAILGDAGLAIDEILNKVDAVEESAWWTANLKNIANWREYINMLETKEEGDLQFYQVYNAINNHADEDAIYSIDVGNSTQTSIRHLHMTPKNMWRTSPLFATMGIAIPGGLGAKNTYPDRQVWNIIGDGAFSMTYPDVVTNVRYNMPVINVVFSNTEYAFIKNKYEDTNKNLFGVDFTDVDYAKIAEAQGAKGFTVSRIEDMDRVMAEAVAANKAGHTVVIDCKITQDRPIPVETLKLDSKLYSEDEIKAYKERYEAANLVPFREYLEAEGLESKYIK
Method: as §1, §2, §3, §4

pyruvate oxidase = assay: Effect of substances on the enzyme, summary statements for the four strains; assay type: biochemical; details: summary in words; for Effect on the enzyme (inhibited / activated): 5 mM substance; for Requirement of the enzyme for the substance (cofactor / substrate): elimination from the assay system
Method: as §1
0.1 M dimethylglutarate-NaOH buffer is used in the case of phosphate elimination.
The assay method of pyruvate oxidase of the present invention uses a reaction mixture as follows:
as §3

[3] = tested on: pyruvate oxidase (B-0667); assay: Effect of several substances added on the enzyme activity; assay type: biochemical, Pediococcus sp. B-0667; details: 5 mM of the substance added instead of MgCl2 in the assay system; enzyme from B-0667; MgCl2 = 100
Method: as §1, §2, §3, §4

[4] = molecular target: T2, pyruvate oxidase (IFO-12317) (Aerococcus viridans, UniProt A0ABP2I6X2); assay: as above; assay type: biochemical, Aerococcus viridans IFO-12317; details: 5 mM of the substance added instead of MgCl2 in the assay system; enzyme from IFO-12317; MgCl2 = 100
T2 sequence (A0ABP2I6X2 1-592): T1 sequence (A0ABP2I6X2 1-592)
Method: as §1, §2, §3, §4

[5] = tested on: pyruvate oxidase (B-0668); assay: Effect of elimination of a substance from the assay system on the enzyme activity; assay type: biochemical, Streptococcus sp. B-0668; details: enzyme from B-0668, no elimination = 100, 0.1 M dimethylglutarate-NaOH buffer for phosphate elimination
Method: (§5) (b) Effect of elimination of the following substance from the assay system on the enzyme activity is shown below. 0.1 M dimethylglutarate-NaOH buffer is used in the case of phosphate elimination.
as §2, §3, §4

[6] = molecular target: T2, pyruvate oxidase (IFO-12317); assay: as above; assay type: biochemical, Aerococcus viridans IFO-12317; details: enzyme from IFO-12317, no elimination = 100, 0.1 M dimethylglutarate-NaOH buffer for phosphate elimination
Method: as §5, §2, §3, §4

[7] = tested on: pyruvate oxidase (B-0667); assay: as above; assay type: biochemical, Pediococcus sp. B-0667; details: enzyme from B-0667, no elimination = 100, 0.1 M dimethylglutarate-NaOH buffer for phosphate elimination
Method: as §5, §2, §3, §4

[8] = molecular target: T1, pyruvate oxidase (IFO-12219); assay: as above; assay type: biochemical, Aerococcus viridans IFO-12219; details: enzyme from IFO-12219, no elimination = 100, 0.1 M dimethylglutarate-NaOH buffer for phosphate elimination
Method: as §5, §2, §3, §4

[Ca+2].[Cl-].[Cl-] [CaCl2]
Relative activity (%) [1]: 75.0%
Relative activity (%) [2]: 83.4%
Effect on the enzyme (inhibited / activated) (pyruvate oxidase): activated
Relative activity (%) [3]: 69.4%
Relative activity (%) [4]: 78.7%

phosphate
Relative activity (%), substance eliminated [5]: 0%
Relative activity (%), substance eliminated [6]: 0%
Relative activity (%), substance eliminated [7]: 0%
Requirement of the enzyme for the substance (cofactor / substrate) (pyruvate oxidase): requires
Relative activity (%), substance eliminated [8]: 0%

Cc1cc2nc3c(=O)[nH]c(=O)nc-3n(C[C@H](O)[C@H](O)[C@H](O)COP(=O)(O)OP(=O)(O)OC[C@H]3O[C@@H](n4cnc5c(N)ncnc54)[C@H](O)[C@@H]3O)c2cc1C [FAD, flavin adenine dinucleotide]
Relative activity (%), substance eliminated [5]: 100%
Relative activity (%), substance eliminated [7]: 33.9%
Requirement of the enzyme for the substance (cofactor / substrate) (pyruvate oxidase): requires
Relative activity (%), substance eliminated [8]: 32.7%

O=C(O)CN(CCN(CC(=O)O)CC(=O)O)CC(=O)O [EDTA, ethylene-diaminetetraacetic acid]
Relative activity (%) [1]: 0%
Relative activity (%) [2]: 0%
Effect on the enzyme (inhibited / activated) (pyruvate oxidase): inhibited
Relative activity (%) [3]: 0%

[Cl][Mn][Cl] [MnCl2]
Relative activity (%) [1]: 102.7%
Relative activity (%) [2]: 116.2%
Effect on the enzyme (inhibited / activated) (pyruvate oxidase): activated
Relative activity (%) [3]: 129.1%
Relative activity (%) [4]: 111.0%

[Cl-].[Cl-].[Co+2] [CoCl2]
Relative activity (%) [1]: 81.1%
Relative activity (%) [2]: 85.0%
Effect on the enzyme (inhibited / activated) (pyruvate oxidase): activated
Relative activity (%) [3]: 81.3%
Relative activity (%) [4]: 84.0%

Cc1ncc(C[n+]2csc(CCO[P@](=O)(O)OP(=O)(O)O)c2C)c(N)n1 [Thiaminepyrophosphate, thiamine pyrophosphate]
Relative activity (%), substance eliminated [5]: 0%
Relative activity (%), substance eliminated [7]: 0%
Requirement of the enzyme for the substance (cofactor / substrate) (pyruvate oxidase): requires
Relative activity (%), substance eliminated [8]: 0%

[Cl-].[Cl-].[Mg+2] [MgCl2]
Relative activity (%) [1]: 100%
Relative activity (%) [2]: 100%
Effect on the enzyme (inhibited / activated) (pyruvate oxidase): activated
Relative activity (%) [3]: 100%
Relative activity (%) [4]: 100%

[Cl-].[Cl-].[Zn+2] [ZnCl2]
Relative activity (%) [1]: 38.2%
Relative activity (%) [2]: 14.9%
Relative activity (%) [3]: 16.0%
Relative activity (%) [4]: 22.8%

[Ba+2].[Cl-].[Cl-] [BaCl2]
Relative activity (%) [1]: 58.8%
Relative activity (%) [2]: 23.9%
Relative activity (%) [3]: 20.6%
Relative activity (%) [4]: 28.8%
